Measurements: ChEMBL document CHEMBL5154652, “Design, synthesis and anti-hepatocellular carcinoma activity of 3-arylisoquinoline alkaloids” (Eur J Med Chem, 2022)
Calls of active or inactive are those of the source. The calls are words filed in the database; no cut-off is given here.

Assays:
HCCLM9 [1] = experiment: Antiproliferative activity against human HCCLM9 cells after 72 hrs by MTT assay; assay type: functional, cell-based; conditions: HCCLM9, 72 h
Huh-7 [2] = experiment: Antiproliferative activity against human Huh-7 cells after 72 hrs by MTT assay; assay type: functional, cell-based; conditions: Huh-7, 72 h
SK-HEP1 = experiment: Antiproliferative activity against human SK-HEP1 cells after 72 hrs by MTT assay; assay type: functional, cell-based; conditions: SK-HEP1, 72 h
HepG2 = experiment: Antiproliferative activity against human HepG2 cells after 72 hrs by MTT assay; assay type: functional, cell-based; conditions: HepG2, 72 h
HT-29 = experiment: Antiproliferative activity against human HT-29 cells after 72 hrs by MTT assay; assay type: functional, cell-based; conditions: HT-29, 72 h
RKO = experiment: Antiproliferative activity against human RKO cells after 72 hrs by MTT assay; assay type: functional, cell-based
SW480 = experiment: Antiproliferative activity against human SW480 cells after 72 hrs by MTT assay; assay type: functional, cell-based; conditions: SW480, 72 h
HGC-27 = experiment: Antiproliferative activity against human HGC-27 cells after 72 hrs by MTT assay; assay type: functional, cell-based; conditions: HGC-27, 72 h
BGC-823 = experiment: Antiproliferative activity against human BGC-823 cells after 72 hrs by MTT assay; assay type: functional, cell-based; conditions: BGC-823, 72 h
A549 = experiment: Antiproliferative activity against human A549 cells after 72 hrs by MTT assay; assay type: functional, cell-based; conditions: A549, 72 h
U-251 = experiment: Antiproliferative activity against human U-251 cells after 72 hrs by MTT assay; assay type: functional, cell-based; conditions: U-251, 72 h
[3] = target: DNA topoisomerase 1 (Homo sapiens) (UniProt P11387); experiment: Inhibition of DNA topoisomerase 1 (unknown origin) at 25 to 50 uM measured by agar gel electrophoresis relative to control; conditions: dose 25-50 µM
DNA topoisomerase 1 (Homo sapiens), sequence (P11387 whole entry): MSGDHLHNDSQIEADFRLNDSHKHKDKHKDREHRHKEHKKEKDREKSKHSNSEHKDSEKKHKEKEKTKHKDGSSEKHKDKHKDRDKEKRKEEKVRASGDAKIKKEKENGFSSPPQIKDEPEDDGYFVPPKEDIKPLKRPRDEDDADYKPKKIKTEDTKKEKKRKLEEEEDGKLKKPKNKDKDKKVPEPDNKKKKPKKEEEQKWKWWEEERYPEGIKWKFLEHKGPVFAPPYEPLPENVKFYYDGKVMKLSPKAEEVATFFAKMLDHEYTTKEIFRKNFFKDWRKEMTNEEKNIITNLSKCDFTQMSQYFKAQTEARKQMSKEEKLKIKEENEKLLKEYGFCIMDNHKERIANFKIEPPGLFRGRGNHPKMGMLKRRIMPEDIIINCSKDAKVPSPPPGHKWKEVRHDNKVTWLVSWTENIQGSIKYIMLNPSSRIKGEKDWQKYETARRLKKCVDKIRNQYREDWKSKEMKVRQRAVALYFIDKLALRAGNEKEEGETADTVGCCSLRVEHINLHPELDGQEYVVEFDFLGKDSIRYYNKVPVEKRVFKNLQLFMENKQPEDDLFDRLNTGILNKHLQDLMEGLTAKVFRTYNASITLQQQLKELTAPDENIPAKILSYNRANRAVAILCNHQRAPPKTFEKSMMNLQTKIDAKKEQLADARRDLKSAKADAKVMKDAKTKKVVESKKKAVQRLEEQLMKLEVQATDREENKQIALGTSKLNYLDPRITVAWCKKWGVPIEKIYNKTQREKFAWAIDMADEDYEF

[4] = Genotoxicity in human HCCLM9 cells assessed as induction of DNA damage at 20 uM by comet assay; assay type: toxicity, cell-based; conditions: hcclm9, 20 µM
Huh-7 [5] = experiment: Anticlonogenic activity in human Huh-7 cells at 2 to 8 uM measured by colony formation assay; assay type: functional, cell-based; conditions: dose 2-8 µM
Huh-7 [6] = experiment: Antiproliferative activity against human Huh-7 cells at 2 to 8 uM after 24 hrs by EdU incorporation assay; assay type: functional, cell-based; conditions: dose 2-8 µM
HCCLM9 [7] = experiment: Antiproliferative activity against human HCCLM9 cells at 1.25 to 5 uM after 24 hrs by EdU incorporation assay; assay type: functional, cell-based; conditions: dose 1.25-5 µM
Huh-7 [8] = experiment: Inhibition of cell migration in human Huh-7 cells at 2 to 8 uM after 24 hrs by transwell assay; assay type: functional, cell-based; conditions: dose 2-8 µM
HCCLM9 [9] = experiment: Inhibition of cell migration in human HCCLM9 cells at 1.25 to 5 uM after 24 hrs by transwell assay; assay type: functional, cell-based; conditions: dose 1.25-5 µM
Huh-7 [10] = experiment: Inhibition of cell invasion in human Huh-7 cells at 2 to 8 uM after 24 hrs; assay type: functional, cell-based; conditions: dose 2-8 µM
Huh-7 [11] = experiment: Inhibition of MMP-9 expression in human Huh-7 cells at 5 to 20 uM measured by western blot analysis; assay type: functional, cell-based; conditions: dose 5-20 µM
HCCLM9 [12] = experiment: Inhibition of MMP-9 expression in human HCCLM9 cells at 3.75 to 15 uM measured by western blot analysis; assay type: functional, cell-based; conditions: dose 3.75-15 µM
Huh-7 [13] = experiment: Induction of cell cycle arrest in human Huh-7 cells assessed as decrease in cell accumulation at S phase at 5 to 20 uM measured after 48 hrs by flow cytometry analysis; assay type: functional, cell-based; conditions: dose 5-20 µM
HCCLM9 [14] = experiment: Induction of cell cycle arrest in human HCCLM9 cells assessed as decrease in cell accumulation at S phase at 3.75 to 15 uM measured after 48 hrs by flow cytometry analysis; assay type: functional, cell-based; conditions: dose 3.75-15 µM
Huh-7 [15] = experiment: Induction of cell cycle arrest in human Huh-7 cells assessed as decrease in cell accumulation at G0/G1 phase at 5 to 20 uM measured after 48 hrs by flow cytometry analysis; assay type: functional, cell-based; conditions: dose 5-20 µM
HCCLM9 [16] = experiment: Induction of cell cycle arrest in human HCCLM9 cells assessed as increase in cell accumulation at G2/M phase at 3.75 to 15 uM measured after 48 hrs by flow cytometry analysis; assay type: functional, cell-based; conditions: dose 3.75-15 µM
Huh-7 [17] = experiment: Induction of apoptosis in human Huh-7 cells at 5 to 20 uM measured by Hoechst staining method; assay type: functional, cell-based; conditions: dose 5-20 µM
HCCLM9 [18] = experiment: Induction of apoptosis in human HCCLM9 cells at 3.5 to 14 uM measured by Hoechst staining method; assay type: functional, cell-based; conditions: dose 3.5-14 µM
Huh-7 [19] = experiment: Induction of apoptosis in human Huh-7 cells at 5 to 20 uM measured by Annexin V /propidium iodide staining method; assay type: functional, cell-based; conditions: dose 5-20 µM
Huh-7 [20] = experiment: Induction of mitochondrial dysfunction in human Huh-7 cells assessed as decrease in MMP levels at 5 to 20 uM; assay type: functional, cell-based; conditions: dose 5-20 µM
HCCLM9 [21] = experiment: Induction of mitochondrial dysfunction in human HCCLM9 cells assessed as decrease in MMP levels at 5 to 20 uM; assay type: functional, cell-based; conditions: dose 5-20 µM
Huh-7 [22] = experiment: Induction of apoptosis in human Huh-7 cells assessed as increase in cytochrome C expression at 5 to 20 uM; assay type: functional, cell-based; conditions: dose 5-20 µM
Huh-7 [23] = experiment: Induction of apoptosis in human Huh-7 cells assessed as increase in cleaved caspase-9 expression at 5 to 20 uM; assay type: functional, cell-based; conditions: dose 5-20 µM
Huh-7 [24] = experiment: Induction of apoptosis in human Huh-7 cells assessed as increase in cleaved caspase-3 expression at 5 to 20 uM; assay type: functional, cell-based; conditions: dose 5-20 µM
HCCLM9 [25] = experiment: Induction of apoptosis in human HCCLM9 cells assessed as reduction in Bcl-2 expression at 3.75 to 15 uM; assay type: functional, cell-based; conditions: dose 3.75-15 µM
HCCLM9 [26] = experiment: Induction of apoptosis in human HCCLM9 cells assessed as increase in Bax expression at 3.75 to 15 uM; assay type: functional, cell-based; conditions: dose 3.75-15 µM
HCCLM9 [27] = experiment: Induction of apoptosis in human HCCLM9 cells assessed as increase in cleaved caspase-9 expression at 3.75 to 15 uM; assay type: functional, cell-based; conditions: dose 3.75-15 µM
Huh-7 [28] = experiment: Induction of mitochondrial apoptosis in human Huh-7 cells assessed as inhibition of p-PI3K levels at 5 to 20 uM measured after 48 hrs by Western blot analysis; assay type: functional, cell-based; conditions: dose 5-20 µM
Huh-7 [29] = experiment: Induction of mitochondrial apoptosis in human Huh-7 cells assessed as inhibition of p-mTOR levels at 5 to 20 uM measured after 48 hrs by Western blot analysis; assay type: functional, cell-based; conditions: dose 5-20 µM
HCCLM9 [30] = experiment: Induction of mitochondrial apoptosis in human HCCLM9 cells assessed as inhibition of p-Akt levels at 3.75 to 15 uM measured after 48 hrs by Western blot analysis; assay type: functional, cell-based; conditions: dose 3.75-15 µM
HCCLM9 [31] = experiment: Induction of mitochondrial apoptosis in human HCCLM9 cells assessed as inhibition of p-PI3K levels at 3.75 to 15 uM measured after 48 hrs by Western blot analysis; assay type: functional, cell-based; conditions: dose 3.75-15 µM
[32] = AUC (0 to t) in male Sprague-Dawley rat at 100 mg/kg, ip; assay type: ADME, organism-based; set-up: dose 100 mg/kg, route ip; conditions: in vivo
[33] = Observed apparent oral clearance in male Sprague-Dawley rat at 100 mg/kg, ip; assay type: ADME, organism-based; conditions: in vivo
[34] = MRT (0 to t)in male Sprague-Dawley rat at 100 mg/kg, ip; assay type: ADME, organism-based; conditions: in vivo
HCCLM9 [35] = experiment: Antitumor activity against human HCCLM9 cells xenografted in male BALB/c nude mouse assessed as inhibition of tumor growth at 15 mg/kg, iv administered once a day for 21 days; assay type: functional, organism-based; conditions: time 21.0 day
[36] = Toxicity in male BALB/c nude mouse xenografted with human HCCLM9 cells assessed as effect on body weight at 15 mg/kg, iv administered once a day for 21 days; assay type: organism-based; conditions: in vivo, 504 h, time 21 day

CNCc1cc2c(cc1-c1cc3ccc4c(c3cn1)OCO4)OCO2
IC50 (HCCLM9 [1]): 6.83 µM | IC50 (Huh-7 [2]): 9.82 µM | IC50 (SK-HEP1): 16.5 µM | IC50 (HepG2): 52 µM | IC50 (HT-29): 31 µM | IC50 (RKO): 47.8 µM | IC50 (SW480): 9.04 µM | IC50 (HGC-27): 34.2 µM | IC50 (BGC-823): 17.7 µM | IC50 (A549): 36.3 µM | IC50 (U-251): 13.5 µM | inhibition [3]: Active | Activity [4]: Non-Toxic | Activity (Huh-7 [5]): Active | Activity (Huh-7 [6]): Active | Activity (HCCLM9 [7]): Active | inhibition (Huh-7 [8]): Active | inhibition (HCCLM9 [9]): Active | inhibition (Huh-7 [10]): Active | inhibition (Huh-7 [11]): Active | inhibition (HCCLM9 [12]): Active | Activity (Huh-7 [13]): Active | Activity (HCCLM9 [14]): Active | Activity (Huh-7 [15]): Active | Activity (HCCLM9 [16]): Active | Activity (Huh-7 [17]): Active | Activity (HCCLM9 [18]): Active | Activity (Huh-7 [19]): Active | Activity (Huh-7 [20]): Active | Activity (HCCLM9 [21]): Active | Activity (Huh-7 [22]): Active | Activity (Huh-7 [23]): Active | Activity (Huh-7 [24]): Active | Activity (HCCLM9 [25]): Active | Activity (HCCLM9 [26]): Active | Activity (HCCLM9 [27]): Active | Activity (Huh-7 [28]): Active | Activity (Huh-7 [29]): Active | Activity (HCCLM9 [30]): Active | Activity (HCCLM9 [31]): Active | AUC(0-t) [32]: 31600 ng·h/mL | CL/F [33]: 20.42 (mg)/(ug/ml)/hr | MRT last [34]: 1 h | Activity (HCCLM9 [35]): Active | Activity [36]: Non-Toxic
